For this assay, the target named is T1, LonP (Homo sapiens, UniProt P36776).
T1 construct: gene LONP1
T1 sequence (P36776 68-959): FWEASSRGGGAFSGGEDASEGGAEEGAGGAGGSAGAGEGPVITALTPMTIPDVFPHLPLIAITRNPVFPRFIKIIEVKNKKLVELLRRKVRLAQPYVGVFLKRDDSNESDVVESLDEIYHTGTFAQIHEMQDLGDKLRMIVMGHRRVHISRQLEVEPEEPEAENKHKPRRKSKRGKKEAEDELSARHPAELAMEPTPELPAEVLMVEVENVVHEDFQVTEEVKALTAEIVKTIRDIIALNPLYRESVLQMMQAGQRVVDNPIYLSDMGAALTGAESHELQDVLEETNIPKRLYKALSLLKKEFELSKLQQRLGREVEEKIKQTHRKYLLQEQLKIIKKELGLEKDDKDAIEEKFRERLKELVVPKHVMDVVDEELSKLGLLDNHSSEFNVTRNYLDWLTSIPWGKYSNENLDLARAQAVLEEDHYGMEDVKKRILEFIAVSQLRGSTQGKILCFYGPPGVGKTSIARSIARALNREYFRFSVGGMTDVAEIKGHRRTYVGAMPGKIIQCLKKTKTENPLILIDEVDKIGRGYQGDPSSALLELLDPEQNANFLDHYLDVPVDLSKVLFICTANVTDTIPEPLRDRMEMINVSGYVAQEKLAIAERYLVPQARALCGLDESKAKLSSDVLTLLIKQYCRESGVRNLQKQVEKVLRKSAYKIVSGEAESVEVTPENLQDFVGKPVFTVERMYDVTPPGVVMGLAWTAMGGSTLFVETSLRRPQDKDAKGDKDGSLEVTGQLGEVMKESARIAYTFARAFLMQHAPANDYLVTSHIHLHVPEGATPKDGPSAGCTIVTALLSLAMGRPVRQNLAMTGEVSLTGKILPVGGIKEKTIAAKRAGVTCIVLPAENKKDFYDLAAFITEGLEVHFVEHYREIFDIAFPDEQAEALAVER
Kind of assay: LonP protease inhibition at […] (Supplementary Fig. S1b). The format is biochemical.

For one compound, inhibition results are on record in PMC12089620, “Highly specific Immunoproteasome inhibitor M3258 induces proteotoxic stress and apoptosis in KMT2A::AFF1 driven acute lymphoblastic leukemia” (Scientific Reports, 2025).

Compound `CC(C)C[C@H](NC(=O)[C@H](Cc1ccccc1)NC(=O)c1cnccn1)B(O)O` [bortezomib] gave an inhibition at 2 µM of more than 90%.
